Laboratory results from patent publication US7342021B2, “Phosphodiesterase 4 inhibitors” (Memory Pharmaceuticals Corp., priority 2001, dated 2008).
Structures can show the parent of a compound that is named as a salt.

Experiments:
[1] = Solubility of the mesylate salt in H2O; format: physicochemical
Protocol: To obtain the methansulphonate salt (mesylate salt), 4 ml of 0.1N CH3SO3H in EtOAc was added to a solution of 145 mg (0.4 mmol) 6-cyclopropylamino-9-(2-fluorobenzyl)-2-trifluoromethylpurine in EtOAc. Then, 1 ml of hexane was added to a warm solution and the resultant mixture was allowed to crystallize (within a refrigerator). The solid was collected to give 148 mg of the mesylate salt. […] M.p. 167.5-169.0 C; m.p. 114-118 C for free base.

[2] = system: rats; assay: Passive avoidance in rats, an in vivo test for learning and memory; parameters: species or system rat; details: MK-801 0.1 mg/kg pretreatment, retention test 24 hours after electric shock, compared to the vehicle, p<0.001
Protocol: The test was performed as previously described (Zhang, H.-T., Crissman, A. M., Dorairaj, N. R., Chandler, L. J., and O'Donnell, J. M., Neuropsychopharmacology, 2000, 23, 198-204.). The apparatus (Model E10-16SC, Coulbourn Instruments, Allentown, Pa.) consisted of a two-compartment chamber with an illuminated compartment connected to a darkened compartment by a guillotine door. The floor of the darkened compartment consisted of stainless steel rods through which an electric foot-shock could be delivered from a constant current source. All experimental groups were first habituated to the apparatus the day before the start of the experiment. During the training, the rat (Male Spraque-Dawley (Harlan) weighing 250 to 350 g) was placed in the illuminated compartment facing away from the closed guillotine door for 1 minute before the door was raised. The latency for entering the darkened compartment was recorded. After the rat entered the darkened compartment, the door was closed and a 0.5 mA electric shock was administered for 3 seconds. […] The latency for entering the darkened compartment was recorded for up to 180 seconds, at which time the trial was terminated.
(§1) All data were analyzed by analyses of variance (ANOVA); individual comparisons were made using Kewman-Keuls tests. […]

[3] = system: rats; assay: Radial arm maze task in rats, an in vivo test for learning and memory; parameters: species or system rat; details: MK-801 0.1 mg/kg i.p., compared to control, p<0.01
Protocol: The test was performed as previously described (Zhang, H.-T., Crissman, A. M., Dorairaj, N. R., Chandler, L. J., and O'Donnell, J. M., Neuropsychopharmacology, 2000, 23, 198-204.). Five days after initial housing, rats (male Spraque-Dawley (Harlan) weighing 250 to 350 g) were placed in the eight-arm radial maze (each arm was 60×10×12 cm high; the maze was elevated 70 cm above the floor) for acclimation for two days. Rats were then placed individually in the center of the maze for 5 minutes with food pellets placed close to the food wells, and then, the next day, in the wells at the end of the arms; 2 sessions a day were conducted. Next, four randomly selected arms were then baited with one pellet of food each. The rat was restricted to the center platform (26 cm in diameter) for 15 seconds and then allowed to move freely throughout the maze until it collected all pellets of food or 10 minutes passed, whichever came first. Four parameters were recorded: 1) working memory errors, i.e., entries into baited arms that had already been visited during the same trial; 2) reference memory errors, i.e., entries into unbaited arms; 3) total arm entries; and 4) the test duration (seconds), i.e., the time spent in the collection of all the pellets in the maze. […]
as §1

| Structure (SMILES) | solubility in H2O [1] | latency for entering the darkened compartment [2] | reference memory errors (frequency) [3] | working memory errors (frequency) [3] |
| --- | --- | --- | --- | --- |
| Fc1ccccc1Cn1cnc2c(NC3CC3)nc(C(F)(F)F)nc21 [Example 4 mesylate salt, 6-cyclopropylamino-9-(2-fluorobenzyl)-2-trifluoromethylpurine] | relatively insoluble | – | – | – |
| C[C@]12N[C@H](Cc3ccccc31)c1ccccc12 [MK-801] | – | markedly reduced this latency | increased the frequencies | increased the frequencies |
